Read-outs that look alike come from different tables or passages of the source.
Assays:
human V1a receptor = molecular target: T1, human V1a receptor (Homo sapiens, UniProt P37288); assay: Cellular in vitro assay for determining vasopressin receptor activity, V1a receptor cell line (CHO, aequorin luminescence); format: cell-based; conditions: for IC50: CHO cell line transfected with human V1a receptor, [Arg]-vasopressin at EC50 concentration, read-out: IC50 hV1a; for ratio IC50 hV2/hV1a: selectivity ratio IC50 hV2 / IC50 hV1a
T1 construct: expressed in transfected cells; host or cells: CHO K1 (ATCC), also stably transfected with a modified aequorin
Procedure: (§1) B-1. Cellular In Vitro Assay for Determining Vasopressin Receptor Activity
(§2) The identification of agonists and antagonists of the V1a and V2 vasopressin receptors from humans, rats and dogs as well as the quantification of the activity of the compounds of the invention is carried out using recombinant cell lines. These cell lines originally derive from a hamster's ovary epithelial cell (Chinese Hamster Ovary, CHO K1, ATCC: American Type Culture Collection, Manassas, Va. 20108, USA). The test cell lines constitutively express the human, rat or dog V1a or V2 receptors. In case of the Gαq-coupled V1a receptors, cells are also stably transfected with a modified form of the calcium-sensitive photoproteins aequorin (human and rat V1a) or obelin (dog V1a), which, after reconstitution with the cofactor coelenterazine, emit light when there are increases in free calcium concentrations [Rizzuto R, Simpson A W, Brini M, Pozzan T, Nature 358, 325-327 (1992); Illarionov B A, Bondar V S, Illarionova V A, Vysotski E S, Gene 153 (2), 273-274 (1995)]. The resulting vasopressin receptor cells react to stimulation of the recombinantly expressed V1a receptors by intracellular release of calcium ions, which can be quantified by the resulting photoprotein luminescence. The Gs-coupled V2 receptors are stably transfected into cell lines expressing the gene for firefly luciferase under control of a CRE-responsible promoter. Activation of V2 receptors induces the activation of the CRE-responsive promoter via cAMP increase, thereby inducing the expression of firefly luciferase. The light emitted by photoproteins of V1a cell lines as well as the light emitted by firefly luciferase of V2 cell lines corresponds to the activation or inhibition of the respective vasopressin receptor. The bioluminescence of the cell lines is detected using a suitable luminometer [Milligan G, Marshall F, Rees S, Trends in Pharmacological Sciences 17, 235-237 (1996)].
Vasopressin V1a Receptor Cell Lines:
On the day before the assay, the cells are plated out in culture medium (DMEM/F12, 2% FCS, 2 mM glutamine, 10 mM HEPES, 5 μg/ml coelenterazine) in 384-well microtiter plates and kept in a cell incubator (96% humidity, 5% v/v CO2, 37° C.). On the day of the assay, test compounds in various concentrations are placed for 10 minutes in the wells of the microtiter plate before the agonist [Arg]-vasopressin at EC50 concentration is added. The resulting light signal is measured immediately in a luminometer.
(§3) Table 1A below lists individual IC50 values for the compounds of the invention (including racemic mixtures as well as separated enantiomers) that were obtained from cell lines transfected with the human V1a or V2 receptor: […]

human V2 receptor = molecular target: T2, human V2 receptor (Homo sapiens, UniProt P30518); assay: Cellular in vitro assay for determining vasopressin receptor activity, V2 receptor cell line (CHO, CRE-luciferase); format: cell-based; conditions: CHO cell line transfected with human V2 receptor, [Arg8]-vasopressin at EC50 concentration, read-out: IC50 hV2
T2 construct: expressed in transfected cells; host or cells: CHO K1 (ATCC) expressing firefly luciferase under a CRE-responsive promoter
Procedure: as §1, §2
Vasopressin V2 Receptor Cell Lines:
On the day before the assay, the cells are plated out in culture medium (DMEM/F12, 2% FCS, 2 mM glutamine, 10 mM HEPES) in 384-well microtiter plates and kept in a cell incubator (96% humidity, 5% v/v CO2, 37° C.). On the day of the assay, test compounds in various concentrations and the agonist [Arg^8]-vasopressin at EC50 concentration are added together to the wells, and plates are incubated for 3 hours in a cell incubator. Upon addition of the cell lysis reagent Triton™ and the substrate luciferin, luminescence of firefly luciferase is measured in a luminometer.
as §3

T2 sequence (P30518 whole entry): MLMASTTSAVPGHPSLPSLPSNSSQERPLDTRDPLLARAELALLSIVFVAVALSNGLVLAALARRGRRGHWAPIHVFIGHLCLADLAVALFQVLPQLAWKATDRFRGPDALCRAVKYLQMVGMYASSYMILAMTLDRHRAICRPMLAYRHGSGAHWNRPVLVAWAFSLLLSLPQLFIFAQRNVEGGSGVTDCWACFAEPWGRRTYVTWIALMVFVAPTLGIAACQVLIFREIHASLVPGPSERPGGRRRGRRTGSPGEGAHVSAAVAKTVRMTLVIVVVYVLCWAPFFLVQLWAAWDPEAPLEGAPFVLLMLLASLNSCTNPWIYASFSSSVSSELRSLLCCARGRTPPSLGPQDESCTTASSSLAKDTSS
T1 sequence (P37288 whole entry): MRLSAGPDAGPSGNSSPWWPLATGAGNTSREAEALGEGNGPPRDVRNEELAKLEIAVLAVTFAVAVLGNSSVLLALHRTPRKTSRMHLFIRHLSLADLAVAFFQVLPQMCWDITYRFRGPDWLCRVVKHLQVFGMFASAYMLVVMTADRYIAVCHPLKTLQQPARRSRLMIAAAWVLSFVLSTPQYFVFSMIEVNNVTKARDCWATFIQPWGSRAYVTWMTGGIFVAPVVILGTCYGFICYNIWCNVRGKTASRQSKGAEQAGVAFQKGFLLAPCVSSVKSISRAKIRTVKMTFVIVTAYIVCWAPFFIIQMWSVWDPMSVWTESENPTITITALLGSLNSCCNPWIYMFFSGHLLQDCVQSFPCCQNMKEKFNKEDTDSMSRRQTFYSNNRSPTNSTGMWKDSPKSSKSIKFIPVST

Row | Structure (SMILES) | IC50 (human V1a receptor) [nM] | ratio IC50 hV2/hV1a (human V1a receptor) | IC50 (human V2 receptor; 3 hours) [nM] | IC50 (human V2 receptor) [nM]
1 | O=C(c1ncccc1-n1cnc(Cn2nc(-c3ccc(Cl)cc3)n(C[C@H](O)C(F)(F)F)c2=O)n1)N1CCC(C(F)(F)F)C1 (mixture of isomers) [Example 449, 5-(4-Chlorophenyl)-4-[(2S)-3,3,3-trifluoro-2-hydroxypropyl]-2-{[1-(2-{[3-(trifluoromethyl)pyrrolidin-1-yl]carbonyl}pyridin-3-yl)-1H-1,2,4-triazol-3-yl]methyl}-2,4-dihydro-3H-1,2,4-triazol-3-one] | 200 | 16.8 | – | 3350
2 | O=C(NCC1CC1)c1cccc(Cl)c1-n1cnc(Cn2nc(-c3ccc(Cl)cc3)n(C[C@@H](O)C(F)(F)F)c2=O)n1 [Example 394, 3-Chloro-2-[3-({3-(4-chlorophenyl)-5-oxo-4-[(2R)-3,3,3-trifluoro-2-hydroxypropyl]-4,5-dihydro-1H-1,2,4-triazol-1-yl}methyl)-1H-1,2,4-triazol-1-yl]-N-(cyclopropylmethyl)benzamide] | 295 | 14.9 | 4400 | –
3 | NC(=O)[C@@H]1CC(F)(F)CN1C(=O)c1cccc(Cl)c1-n1cnc(Cn2nc(-c3ccc(Cl)cc3)n(C[C@H](O)C(F)(F)F)c2=O)n1 [Example 372, 1-{3-Chloro-2-[3-({3-(4-chlorophenyl)-5-oxo-4-[(2S)-3,3,3-trifluoro-2-hydroxypropyl]-4,5-dihydro-1H-1,2,4-triazol-1-yl}methyl)-1H-1,2,4-triazol-1-yl]benzoyl}-4,4-difluoro-L-prolinamide] | 52.5 | 64.8 | 3400 | –
4 | C=CCC(=O)Nc1ncccc1-n1cnc(Cn2nc(-c3ccc(Cl)cc3)n(C[C@H](O)C(F)(F)F)c2=O)n1 [Example 152] | 65 | 20.8 | 1350 | –
5 | O=C1CN(C(=O)c2ncccc2-n2cnc(Cn3nc(-c4ccc(Cl)cc4)n(C[C@@H](O)C(F)(F)F)c3=O)n2)CCN1 [Example 469, 4-({3-[3-({3-(4-Chlorophenyl)-5-oxo-4-[(2R)-3,3,3-trifluoro-2-hydroxypropyl]-4,5-dihydro-1H-1,2,4-triazol-1-yl}methyl)-1H-1,2,4-triazol-1-yl]pyridin-2-yl}carbonyl)piperazin-2-one] | 560 | 178.6 | – | –
6 | O=C(N[C@H]1C[C@@H]1F)c1ncccc1-n1nc(Cn2nc(-c3ccc(Cl)cc3)n(C[C@@H](O)C(F)(F)F)c2=O)nc1N1CCS(=O)(=O)CC1 (racemic) [Example 487, 3-[3-({3-(4-Chlorophenyl)-5-oxo-4-[(2R)-3,3,3-trifluoro-2-hydroxypropyl]-4,5-dihydro-1H-1,2,4-triazol-1-yl}methyl)-5-(1,1-dioxidothiomorpholin-4-yl)-1H-1,2,4-triazol-1-yl]-N-[2-fluorocyclopropyl]pyridine-2-carboxamide] | 5300 | 18.9 | – | –
7 | O=C(c1ncccc1-n1cnc(Cn2nc(-c3ccc(Cl)cc3)n(C[C@@H](O)C(F)(F)F)c2=O)n1)N1CCNC(C(F)(F)F)C1 (mixture of isomers) [Example 476, 5-(4-Chlorophenyl)-4-[(2R)-3,3,3-trifluoro-2-hydroxypropyl]-2-{[1-(2-{[3-(trifluoromethyl)piperazin-1-yl]carbonyl}pyridin-3-yl)-1H-1,2,4-triazol-3-yl]methyl}-2,4-dihydro-3H-1,2,4-triazol-3-one] | 750 | 133.3 | – | –

Stronger by IC50 (human V1a receptor), values ahead:

Row | IC50 (human V1a receptor) [nM] | ratio IC50 hV2/hV1a (human V1a receptor) | IC50 (human V2 receptor; 3 hours) [nM] | IC50 (human V2 receptor) [nM] | Structure (SMILES)
8 | 22 | 245.5 | 5400 | – | NC(=O)[C@H]1CC(F)(F)CN1C(=O)c1ccccc1-n1cnc(Cn2nc(-c3ccc(Cl)cc3)n(C[C@H](O)C(F)(F)F)c2=O)n1 [Example 198, 1-{2-[3-({3-(4-Chlorophenyl)-5-oxo-4-[(2S)-3,3,3-trifluoro-2-hydroxypropyl]-4,5-dihydro-1H-1,2,4-triazol-1-yl}methyl)-1H-1,2,4-triazol-1-yl]benzoyl}-4,4-difluoro-D-prolinamide]
9 | 9.85 | 10.2 | – | 100 | CNC(=O)c1cc(F)ccc1-n1cnc(Cn2nc(-c3ccc(Cl)cc3)n(C[C@H](O)C(F)(F)F)c2=O)n1 [Example 425, 2-[3-({3-(4-Chlorophenyl)-5-oxo-4-[(2S)-3,3,3-trifluoro-2-hydroxypropyl]-4,5-dihydro-1H-1,2,4-triazol-1-yl}methyl)-1H-1,2,4-triazol-1-yl]-5-fluoro-N-methylbenzamide]
10 | 11.5 | 230.4 | – | 2650 | CC(C)(N)CNC(=O)c1cc(F)ccc1-n1cnc(Cn2nc(-c3ccc(Cl)cc3)n(C[C@H](O)C(F)(F)F)c2=O)n1 [Example 424, N-(2-Amino-2-methylpropyl)-2-[3-({3-(4-chlorophenyl)-5-oxo-4-[(2S)-3,3,3-trifluoro-2-hydroxypropyl]-4,5-dihydro-1H-1,2,4-triazol-1-yl}methyl)-1H-1,2,4-triazol-1-yl]-5-fluorobenzamide]
11 | 12.6 | 11.5 | 145 | – | CC1CCCC(NC(=O)c2ccccc2-n2cnc(Cn3nc(-c4ccc(Cl)cc4)n(C[C@H](O)C(F)(F)F)c3=O)n2)C1 (mixture of isomers) [Example 224, 2-[3-({3-(4-Chlorophenyl)-5-oxo-4-[(2S)-3,3,3-trifluoro-2-hydroxypropyl]-4,5-dihydro-1H-1,2,4-triazol-1-yl}methyl)-1H-1,2,4-triazol-1-yl]-N-(3-methylcyclohexyl)benzamide]
12 | 27 | 15.7 | 425 | – | CCC(C)(O)C(=O)Nc1ncccc1-n1cnc(Cn2nc(-c3ccc(Cl)cc3)n(C[C@H](O)C(F)(F)F)c2=O)n1 (stereo partly drawn) [Example 120]
13 | 3.85 | 223.4 | 860 | – | CC1CCN(C(=O)c2ccccc2-n2cnc(Cn3nc(-c4ccc(Cl)cc4)n(C[C@H](O)C(F)(F)F)c3=O)n2)C(C)C1 (stereo partly drawn) [Example 266, 5-(4-Chlorophenyl)-2-[(1-{2-[(2,4-dimethylpiperidin-1-yl)carbonyl]phenyl}-1H-1,2,4-triazol-3-yl)methyl]-4-[(2S)-3,3,3-trifluoro-2-hydroxypropyl]-2,4-dihydro-3H-1,2,4-triazol-3-one]
14 | 3.05 | 254.1 | 775 | – | O=C(NC1CCOC1=O)c1ccccc1-n1cnc(Cn2nc(-c3ccc(Cl)cc3)n(C[C@H](O)C(F)(F)F)c2=O)n1 (mixture of isomers) [Example 231, 2-[3-({3-(4-Chlorophenyl)-5-oxo-4-[(2S)-3,3,3-trifluoro-2-hydroxypropyl]-4,5-dihydro-1H-1,2,4-triazol-1-yl}methyl)-1H-1,2,4-triazol-1-yl]-N-[(3S)-2-oxotetrahydrofuran-3-yl]benzamide]
15 | 2.36 | 118.5 | 280 | – | CNC(=O)c1ccccc1-n1cnc(Cn2nc(-c3ccc(Cl)cc3)n(C[C@H](O)C(F)(F)F)c2=O)n1 [Example 169, 2-[3-({3-(4-Chlorophenyl)-5-oxo-4-[(2S)-3,3,3-trifluoro-2-hydroxypropyl]-4,5-dihydro-1H-1,2,4-triazol-1-yl}methyl)-1H-1,2,4-triazol-1-yl]-N-methylbenzamide]
16 | 50 | 34.0 | – | 1700 | O=C(NCC(F)(F)F)c1ccncc1-n1cnc(Cn2nc(-c3ccc(Cl)cc3)n(C[C@H](O)C(F)(F)F)c2=O)n1 [Example 489, 3-[3-({3-(4-chlorophenyl)-5-oxo-4-[(2S)-3,3,3-trifluoro-2-hydroxypropyl]-4,5-dihydro-1H-1,2,4-triazol-1-yl}methyl)-1H-1,2,4-triazol-1-yl]-N-(2,2,2-trifluoroethyl)pyridine-4-carboxamide]

Reference: US11173151B2, “Substituted triazole derivatives and uses thereof” (BAYER AKTIENGESELLSCHAFT, priority 2017, dated 2021)
